Reference: patent publication US10590113B2, “6-hydroxy-4-oxo-1,4-dihydropyrimidine-5-carboxamides as APJ agonists” (priority 2016, dated 2020)

molecular target: T1, human APJ receptor (Homo sapiens, UniProt P35414); assay: Intracellular cAMP Accumulation Assay (APJ hcAMP, HTRF); type: cell-based; conditions: human APJ, cAMP accumulation; potency range class; read-out: hAPJ cAMP EC50 Potency range
T1 construct: expressed in transfected cells; host or cells: HEK293
T1 sequence (P35414 1-380): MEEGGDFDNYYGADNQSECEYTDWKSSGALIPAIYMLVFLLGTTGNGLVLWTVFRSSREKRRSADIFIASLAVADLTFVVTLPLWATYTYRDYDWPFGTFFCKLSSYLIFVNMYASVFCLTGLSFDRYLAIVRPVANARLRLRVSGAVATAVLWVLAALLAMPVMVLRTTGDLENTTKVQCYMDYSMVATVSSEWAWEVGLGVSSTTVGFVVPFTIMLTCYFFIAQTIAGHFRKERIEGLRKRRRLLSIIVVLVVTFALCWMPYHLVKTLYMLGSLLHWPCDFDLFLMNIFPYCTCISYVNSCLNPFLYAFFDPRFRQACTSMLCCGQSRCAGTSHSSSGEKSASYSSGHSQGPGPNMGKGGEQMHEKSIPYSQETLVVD
Experimental: Intracellular cAMP Accumulation Assay
HEK293 cells stably expressing human APJ receptor were used to assess the activity of compounds. Cultured cells were detached and resuspended in the cAMP
Homogeneous Time-Resolved Fluorescence (HTRF) assay buffer (Cisbio cat; #62AM4PEJ). The assay was performed in 384-well assay plates (Perkin-Elmer; cat #6008289) according to assay protocol provided by the manufacturer. Serial dilutions of a compound together with assay buffer containing […] IBMX and 2 μM forskolin were added to each well containing 5,000 cells and incubated for 30 minutes at room temperature. Subsequently, cAMP D2 reagent was added in the lysis buffer followed by the EuK antibody (Cisbio; cat #62AM4PEJ) and incubated for 60 min. The fluorescence emission ratio was measured using fluorometer. The intracellular cAMP concentrations (compound-stimulated inhibition of forskolin-mediated cAMP production) were calculated by extrapolation from a standard curve using known cAMP concentrations. The EC50 values were obtained by fitting the data to a sigmoidal concentration-response curve with variable slope.
The EC50 value of each compound is presented at the end of the example description.
The biological activity of the exemplified compounds of this invention determined by the assay described above is shown at the end of each example.

Row | SMILES | EC50
1 | CCc1cccc(CC)c1-n1c(-c2csc(C)n2)nc(=O)c(C(=O)N2CC[C@@H](c3ccccc3)C2)c1O [Example 303, 1-(2,6-diethylphenyl)-6-hydroxy-2-(2-methyl-1,3-thiazol-4-yl)-5-[(3S)-3-phenylpyrrolidine-1-carbonyl]-1,4-dihydropyrimidin-4-one] | 0.01 to 10 nM
2 | CCCCc1nc(O)c(C(=O)N2CCC(c3ncc(Cl)cc3F)C2)c(=O)n1[C@@H](COC)c1ccccc1 (single isomer, unassigned) [Example 352] | 0.01 to 10 nM
3 | CCCCc1nc(=O)c(C(=O)N2CCC(c3ncc(Cl)cc3F)C2)c(O)n1-c1c(OC)cccc1OC (single isomer, unassigned) [Example 356, 2-butyl-5-(3-(5-chloro-3-fluoropyridin-2-yl)pyrrolidine-1-carbonyl)-1-(2,6-dimethoxyphenyl)-6-hydroxypyrimidin-4(1H)-one] | 0.01 to 10 nM
4 | CCOCc1nc(=O)c(C(=O)N2CCC(c3ccccc3C#N)C2)c(O)n1-c1c(OC)cccc1OC (single isomer, unassigned) [Example 362, 2-(1-(1-(2,6-dimethoxyphenyl)-2-(ethoxymethyl)-6-hydroxy-4-oxo-1,4-dihydropyrimidine-5-carbonyl)pyrrolidin-3-yl)benzonitrile] | 0.01 to 10 nM
5 | COc1cccc(OC)c1-n1c(-c2ccc(F)c(C)c2)nc(=O)c(C(=O)N2CCC(c3ncc(F)cc3F)C2)c1O (single isomer, unassigned) [Example 256, 5-[3-(3,5-difluoropyridin-2-yl)pyrrolidine-1-carbonyl]-1-(2,6-dimethoxyphenyl)-2-(4-fluoro-3-methylphenyl)-6-hydroxy-1,4-dihydropyrimidin-4-one] | 0.01 to 10 nM
6 | CCc1cccc(CC)c1-n1c(-c2csc(C(C)C)n2)nc(=O)c(C(=O)N2CC[C@@H](c3ccccc3)C2)c1O [Example 299, 1-(2,6-diethylphenyl)-6-hydroxy-5-[(3S)-3-phenylpyrrolidine-1-carbonyl]-2-[2-(propan-2-yl)-1,3-thiazol-4-yl]-1,4-dihydropyrimidin-4-one] | 0.01 to 10 nM
7 | CCc1cccc(CC)c1-n1c(-c2ccn(C(C)C)n2)nc(=O)c(C(=O)N2CC[C@@H](c3ccccc3)C2)c1O [Example 289, 1-(2,6-diethylphenyl)-6-hydroxy-5-[(3S)-3-phenylpyrrolidine-1-carbonyl]-2-[1-(propan-2-yl)-1H-pyrazol-3-yl]-1,4-dihydropyrimidin-4-one] | 0.01 to 10 nM
8 | COc1cccc(OC)c1-n1c(-c2csc(C)n2)nc(=O)c(C(=O)N2CCC(Oc3cccc(F)c3F)CC2)c1O [Example 277, 5-[4-(2,3-difluorophenoxy)piperidine-1-carbonyl]-1-(2,6-dimethoxyphenyl)-6-hydroxy-2-(2-methyl-1,3-thiazol-4-yl)-1,4-dihydropyrimidin-4-one] | 0.01 to 10 nM
9 | CCc1cccc(CC)c1-n1c(-c2ccn(C)n2)nc(=O)c(C(=O)N2CC[C@H](c3ccccc3)C2)c1O [Example 283, 1-(2,6-diethylphenyl)-6-hydroxy-2-(1-methyl-1H-pyrazol-3-yl)-5-[(3R)-3-phenylpyrrolidine-1-carbonyl]-1,4-dihydropyrimidin-4-one] | 0.01 to 10 nM

same assay, conditions: human APJ, intracellular cAMP accumulation; read-out: hAPJ cAMP EC50 Potency range

Row | SMILES | EC50
10 | COc1cccc(OC)c1-n1c(COC2CC2)nc(=O)c(C(=O)N2CCC(c3ccc(F)cc3)C2)c1O (single isomer, unassigned) [Example 100, 2-(cyclopropoxymethyl)-1-(2,6-dimethoxyphenyl)-5-[3-(4-fluorophenyl)pyrrolidine-1-carbonyl]-6-hydroxy-1,4-dihydropyrimidin-4-one] | 0.01 to 10 nM
11 | COc1cccc(OC)c1-n1c(CC2CC2)nc(=O)c(C(=O)N2CC[C@H](c3ccccc3)C2)c1O [Example 32, (R)-2-(cyclopropylmethyl)-3-(2,6-dimethoxyphenyl)-6-hydroxy-5-(3-phenylpyrrolidine-1-carbonyl)pyrimidin-4(3H)-one] | 0.01 to 10 nM
12 | CCCCc1nc(=O)c(C(=O)N2CC[C@@H](c3ccccc3)C2)c(O)n1[C@@H](C)c1cccc(OC)c1 [Example 120, 2-butyl-6-hydroxy-3-[(1S)-1-(3-methoxyphenyl)ethyl]-5-[(3S)-3-phenylpyrrolidine-1-carbonyl]-3,4-dihydropyrimidin-4-one] | 0.01 to 10 nM
13 | COc1cccc(OC)c1-n1c(CCC2CC2)nc(=O)c(C(=O)N2CC[C@H](c3ccccc3)C2)c1O [Example 96, 2-(2-cyclopropylethyl)-1-(2,6-dimethoxyphenyl)-6-hydroxy-5-[(3R)-3-phenylpyrrolidine-1-carbonyl]-1,4-dihydropyrimidin-4-one] | 0.01 to 10 nM
14 | CC[C@@H](c1cc(F)cc(F)c1)n1c(-c2cnn(C)c2)nc(=O)c(C(=O)N2CCC(c3ccc(Cl)cn3)C2)c1O (single isomer, unassigned) [Example 183] | 0.01 to 10 nM
15 | COc1cccc(OC)c1-n1c(COC2CC2)nc(=O)c(C(=O)N2CCC(c3ccccc3C)C2)c1O (single isomer, unassigned) [Example 19, 2-(cyclopropoxymethyl)-1-(2,6-dimethoxyphenyl)-6-hydroxy-5-(3-(o-tolyl)pyrrolidine-1-carbonyl)pyrimidin-4(1H)-one] | 0.01 to 10 nM
16 | COc1cccc(OC)c1-n1c(COC(C)C)nc(=O)c(C(=O)N2CCC(c3ccccc3C(F)(F)F)C2)c1O (single isomer, unassigned) [Example 99, 1-(2,6-dimethoxyphenyl)-6-hydroxy-2-[(propan-2-yloxy)methyl]-5-{3-[2-(trifluoromethyl)phenyl]pyrrolidine-l-carbonyl}-1,4-dihydropyrimidin-4-one] | 0.01 to 10 nM
17 | CCOCc1nc(=O)c(C(=O)N2CCC(c3cccnc3)C2)c(O)n1-c1c(OC)cccc1OC (single isomer, unassigned) [Example 85, 1-(2,6-dimethoxyphenyl)-2-(ethoxymethyl)-6-hydroxy-5-[3-(pyridin-3-yl)pyrrolidine-1-carbonyl]-1,4-dihydropyrimidin-4-one] | 0.01 to 10 nM
18 | COc1cccc(OC)c1-n1c(COC(C)C)nc(=O)c(C(=O)N2CC(c3ccccc3)C2)c1O [Example 110, 1-(2,6-dimethoxyphenyl)-6-hydroxy-5-(3-phenylazetidine-1-carbonyl)-2-[(propan-2-yloxy)methyl]-1,4-dihydropyrimidin-4-one] | 10 to 100 nM
19 | COc1ccccc1C1CCN(C(=O)c2c(O)n(-c3c(OC)cccc3OC)c(COC(C)C)nc2=O)C1 (single isomer, unassigned) [Example 161, 1-(2,6-dimethoxy-phenyl)-6-hydroxy-5-[3-(2-methoxy-phenyl)pyrrolidine-1-carbonyl]-2-[(propan-2-yloxy)methyl]-1,4-dihydropyrimidin-4-one] | 0.01 to 10 nM
20 | CC[C@@H](c1cc(F)cc(F)c1)n1c(-c2cnn(C)c2)nc(=O)c(C(=O)N2CCC(c3ncccc3F)C2)c1O (single isomer, unassigned) [Example 219] | 0.01 to 10 nM
21 | COc1cccc(OC)c1-n1c(COC(C)C)nc(=O)c(C(=O)N2CCC(c3ccccc3C(F)(F)F)C2)c1O (single isomer, unassigned) [Example 101, 1-(2,6-dimethoxyphenyl)-6-hydroxy-2-[(propan-2-yloxy)methyl]-5-{3-[2-(trifluoromethyl)phenyl]pyrrolidine-1-carbonyl}-1,4-dihydropyrimidin-4-one] | 0.01 to 10 nM
22 | CCc1cccc(CC)c1-n1c(COC(C)C)nc(=O)c(C(=O)N2CC[C@H](c3ccccc3)C2)c1O [Example 17, (R)-3-(2,6-diethylphenyl)-6-hydroxy-2-(isopropoxymethyl)-5-(3-phenylpyrrolidine-1-carbonyl)pyrimidin-4(3H)-one] | 0.01 to 10 nM
23 | CC[C@@H](c1cc(F)cc(F)c1)n1c(-c2nc(C)cs2)nc(=O)c(C(=O)N2CCC(c3cc(F)ccn3)C2)c1O (single isomer, unassigned) [Example 205] | 0.01 to 10 nM
24 | COc1cccc(OC)c1-n1c(COC(C)(C)C)nc(=O)c(C(=O)N2CCC(c3ccc(F)cc3)C2)c1O (centres unmarked) [Example 44, 2-[(tert-butoxy)methyl]-1-(2,6-dimethoxyphenyl)-5-[3-(4-fluorophenyl)pyrrolidine-1-carbonyl]-6-hydroxy-1,4-dihydropyrimidin-4-one] | 0.01 to 10 nM

same assay, conditions: read-out: hAPJ cAMP EC50 Potency range

Row | SMILES | EC50
25 | COc1cccc(OC)c1-n1c(COC(C)(C)C)nc(=O)c(C(=O)N2CCC(c3ccccc3C#N)C2)c1O (single isomer, unassigned) [Example 368, 2-(1-(2-(tert-butoxymethyl)-1-(2,6-dimethoxyphenyl)-6-hydroxy-4-oxo-1,4-dihydropyrimidine-5-carbonyl)pyrrolidin-3-yl)benzonitrile] | 0.01 to 10 nM
26 | CCCCc1nc(=O)c(C(=O)N2CCC(Oc3cccc(F)c3Cl)CC2)c(O)n1-c1c(OC)cccc1OC [Example 383, 2-butyl-5-(4-(2-chloro-3-fluorophenoxy)piperidine-1-carbonyl)-1-(2,6-dimethoxyphenyl)-6-hydroxypyrimidin-4(1H)-one] | 0.01 to 10 nM
